In US20240002474A1, “Systems and Methods for Diagnostic Assessment and Treatment of Insulin Resistance and Hyperglycemia” (The Board of Trustees of the Leland Stanford Junior …, priority 2020, published 2024):

What was measured:
HepaRG hepatocytes = assay: Mitochondrial insulin stimulation test (MIST), oxygen consumption rate in HepaRG hepatocytes; format: cell-based, human; conditions: for insulin-dependent mitochondrial respiration / maximal respiration (FCCP uncoupling): HepaRG, 10-minute pretreatment with peptide (10 μM) before exposure to IR or T2D patient serum, vs cells without peptide
Protocol: Mitochondrial Insulin Stimulation Test. HepaRG hepatocytes or skeletal muscle cells were plated at 40,000 cells/well in Seahorse XF96 plate (Agilent) the day before the assay. Cells were serum starved by culturing in respective media without serum or growth factor supplements. Individual serum was diluted 1:100 in supplement-free media and cells were incubated with media containing individual serum for 4 hours. Cells were washed three times with PBS and incubated with seahorse assay media (buffer free RPMI with mM glucose, mM sodium pyruvate and mM glutamine) for 1 hour in a CO2 free incubation at 37° C. Seahorse measurements were performed every 5 minutes with mixing. Mitochondrial function was perturbed by administration of insulin (100 nM), oligomycin (1 μM), FCCP (2 μM), and rotenone and antimycin A (1 μM). Data was processed by normalizing basal respiration to zero and the maximal respiration following FCCP administration of the positive control (no serum exposure with insulin stimulation) to 1.
IgG purification and fragmentation. IgG purified from serum was diluted (1:100) in Protein G binding buffer (Thermo) and incubated with Protein G Agarose Beads (Thermo) for 4 hours on an orbital shaker at 4° C. Beads were washed three times with Protein G binding buffer and IgG was eluted by incubated beads in Protein G elution buffer, pH 2.7 for 5 minutes, centrifuged and the supernatant was quenched with Tris-HCl buffer, pH 9.0. Purified IgG was buffer exchanged to using 15 kDa spin column to PBS. Purification was validated by immunoblotting. Fab fragments were generated by papain cleavage using Pierce […] (Thermo Scientific) according to manufacturer's protocol.
Peptide Synthesis. SYN746 (QRFCTGHFGGLYPCHGP; SEQ ID NO: 1) and HIV TAT conjugated FcRn C-terminal tail-dominant negative ([…]; SEQ ID Nos: 2 and 3) were synthesized using Fmoc solid phase peptide synthesis and purified using preparative HPLC using aC18 reverse-phase column and characterized by liquid-chromatography mass spectrometry by University of Minnesota Peptide Synthesis Core.

FcRn = FcRn (Homo sapiens, UniProt P55899); conditions: previously published peptide; similar to IgG; cited from earlier work
Sequence of FcRn (P55899 24-297 limits assumed): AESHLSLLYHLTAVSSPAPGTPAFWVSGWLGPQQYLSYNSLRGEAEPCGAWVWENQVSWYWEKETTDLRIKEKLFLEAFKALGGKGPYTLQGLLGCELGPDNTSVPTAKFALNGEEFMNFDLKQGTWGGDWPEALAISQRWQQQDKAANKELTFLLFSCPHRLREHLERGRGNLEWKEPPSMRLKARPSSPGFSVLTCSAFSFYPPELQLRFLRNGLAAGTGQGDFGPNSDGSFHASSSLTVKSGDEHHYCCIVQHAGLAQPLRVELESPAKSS
Sequence of FcRn (P61769 21-119 partner): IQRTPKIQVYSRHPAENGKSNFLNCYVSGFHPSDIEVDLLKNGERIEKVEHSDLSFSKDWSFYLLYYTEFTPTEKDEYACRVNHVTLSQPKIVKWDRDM

Sequence | insulin-dependent mitochondrial respiration (HepaRG hepatocytes) | maximal respiration (FCCP uncoupling) (HepaRG hepatocytes) | mitochondrial function or insulin stimulation in control cells (HepaRG hepatocytes; HepaRG control cells, 10-minute pretreatment) | binding to FcRn (FcRn)
YGRKKRRQRRRGAPWISLRGDDTGVLLPTP [dominant negative] | significant rescue | significant rescue | – | –
QRFCTGHFGGLYPCHGP (listed as Homo sapiens) [SYN746] | dramatic rescue | dramatic rescue | did not affect | pH-sensitive binding
